From patent publication US10550100B2, “5-[3-[piperzin-1-yl]-3-oxo-propyl]-imidazolidine-2,4-dione derivatives as ADAMTS 4 and 5 inhibitors for treating E.G. osteoarthritis” (GALAPAGOS NV, priority 2016, dated 2020)
Like-named read-outs stand apart in the source and are kept apart here.

Experiments:
Assay type in all cases: biochemical
human ADAMTS-5 = human ADAMTS-5 (Homo sapiens (Human), UniProt Q9UNA0); experiment: hADAMTS-5 TBIS-1 cleavage assay, Protocol 3; details: Protocol 3, TBIS-1 substrate, 90 min at 37° C.; read-out: hADAMTS-5 potency IC50
human ADAMTS-5, sequence (Q9UNA0 262-930): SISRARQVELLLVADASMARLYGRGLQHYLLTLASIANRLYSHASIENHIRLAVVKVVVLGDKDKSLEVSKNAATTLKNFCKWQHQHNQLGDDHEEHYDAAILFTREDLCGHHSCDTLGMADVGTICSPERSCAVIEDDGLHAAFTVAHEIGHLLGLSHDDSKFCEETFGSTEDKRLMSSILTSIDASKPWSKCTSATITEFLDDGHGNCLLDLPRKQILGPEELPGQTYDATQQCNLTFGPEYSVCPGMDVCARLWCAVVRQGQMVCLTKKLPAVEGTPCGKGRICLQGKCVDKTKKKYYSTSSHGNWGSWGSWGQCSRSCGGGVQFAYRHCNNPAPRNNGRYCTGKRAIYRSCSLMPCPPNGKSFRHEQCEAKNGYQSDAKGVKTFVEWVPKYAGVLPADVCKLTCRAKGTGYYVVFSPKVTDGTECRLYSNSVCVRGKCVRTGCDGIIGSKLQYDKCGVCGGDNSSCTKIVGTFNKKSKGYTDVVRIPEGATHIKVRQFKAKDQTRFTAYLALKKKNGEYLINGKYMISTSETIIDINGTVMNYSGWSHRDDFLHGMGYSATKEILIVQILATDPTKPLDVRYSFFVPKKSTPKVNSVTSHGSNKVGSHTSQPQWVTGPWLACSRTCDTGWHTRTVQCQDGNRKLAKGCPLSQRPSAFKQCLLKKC
Experimental: The reaction is initiated by adding to the assay plate TBIS-1 (10 μL, 4.5 μM, Anaspec) in the same buffer.
Finally, the fluorescence is read on the Envision (Perkin Elmer) after an incubation of 90 min at 37° C. (Excitation 485 nm, emission 530).

human TACE = human TACE (Homo sapiens (Human), UniProt P78536); experiment: hTACE 5FAM-[…]-5TAMRA cleavage assay; details: 75 min at room temperature, read-out: hTACE potency IC50
human TACE, sequence (P78536 215-671): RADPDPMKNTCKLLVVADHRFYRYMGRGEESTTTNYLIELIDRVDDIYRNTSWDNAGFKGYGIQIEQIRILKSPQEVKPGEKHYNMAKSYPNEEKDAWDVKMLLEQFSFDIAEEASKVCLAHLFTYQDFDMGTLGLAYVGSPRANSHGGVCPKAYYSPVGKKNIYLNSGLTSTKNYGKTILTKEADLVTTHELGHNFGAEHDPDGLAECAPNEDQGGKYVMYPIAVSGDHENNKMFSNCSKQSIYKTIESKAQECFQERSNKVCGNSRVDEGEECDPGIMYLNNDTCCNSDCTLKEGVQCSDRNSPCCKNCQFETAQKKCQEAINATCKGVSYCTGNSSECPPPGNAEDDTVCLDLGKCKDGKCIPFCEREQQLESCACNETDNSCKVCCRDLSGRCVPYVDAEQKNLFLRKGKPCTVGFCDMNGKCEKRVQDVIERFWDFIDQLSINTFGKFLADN
Experimental: Finally, the fluorescence is read on the Envision (Perkin Elmer) after an incubation of 75 min at room temperature (Excitation 485 nm, Emission 530).

human ADAMTS6 = human ADAMTS6 (Homo sapiens (Human), UniProt Q9UKP5); experiment: hADAMTS-6 520 MMP FRET substrate XII cleavage assay; details: 37° C. for 2 h, read-out: hADAMTS-6 potency IC50
human ADAMTS6, sequence (Q9UKP5 other isoform, or with tags, fused parts or gaps): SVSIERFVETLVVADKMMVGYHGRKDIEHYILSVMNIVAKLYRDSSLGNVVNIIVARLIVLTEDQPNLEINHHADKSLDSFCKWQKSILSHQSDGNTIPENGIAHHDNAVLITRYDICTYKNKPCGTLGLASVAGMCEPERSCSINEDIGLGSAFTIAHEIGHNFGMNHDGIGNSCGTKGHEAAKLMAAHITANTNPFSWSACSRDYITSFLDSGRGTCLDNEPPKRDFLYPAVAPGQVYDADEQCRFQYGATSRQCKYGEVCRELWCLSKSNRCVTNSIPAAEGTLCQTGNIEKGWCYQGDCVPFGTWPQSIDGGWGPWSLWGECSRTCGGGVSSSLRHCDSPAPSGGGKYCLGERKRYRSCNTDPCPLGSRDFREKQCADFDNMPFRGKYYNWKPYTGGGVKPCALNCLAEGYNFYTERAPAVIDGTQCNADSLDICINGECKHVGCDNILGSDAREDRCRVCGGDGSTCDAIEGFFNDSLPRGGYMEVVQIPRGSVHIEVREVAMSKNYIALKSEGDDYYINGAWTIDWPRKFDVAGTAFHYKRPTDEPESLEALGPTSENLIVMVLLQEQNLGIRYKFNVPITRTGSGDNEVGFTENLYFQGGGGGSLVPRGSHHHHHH
From the text: The IC50 value for test compounds can be determined in a fluorescent based protease assay.
The basis for the assay is the cleavage of the substrate 520 MMP FRET substrate XII by human ADAMTS6.
The substrate contains sequence Arg-Pro-Lys-Pro-Tyr-Ala-Nva-Trp-Met-Lys (SEQ ID NO: 7) with attached a fluorescent probe and a quencher. Without ADAMTS6, the emission of the probe is quenched. If the substrate is cleaved by ADAMTS6, the emission of the probe is not quenched anymore. Inhibition of ADAMTS6 activity, will result in a decrease of the signal.
To perform the assay, 4 μL of a dilution series of compound in water, starting from 20 μM highest concentration, 1/5 dilution, is added to the wells. 2 ng ADAMTS6 enzyme is diluted in 25 mM Tris pH8.0, 0.05% CHAPS, 2.5 mM CaCl2 in a total volume of 26 μL (final concentration 0.73 nM). The reaction is started by addition of 10 μL of 1 μM 520 MMP FRET Substrate XII (final concentration, diluted in same buffer as described above) and the mixture is incubated at 37° C. for 2 h. […] After this incubation, cleavage of the substrate is measured using the Envision (Perkin Elmer, exc485/em530).

IC50 (human ADAMTS-5) [nM] | IC50 (human TACE; 5FAM-[…]-5TAMRA) [nM] | IC50 (human ADAMTS6) [nM] | IC50 (human TACE; 5FAM-LAQAVRSSSRK-5TAMRA) [nM] | Structure (SMILES)
> 100 | 50 to 100 | 0.001 to 25 |  | CCOc1cc(C2CCN(C(=O)CC[C@H]3NC(=O)NC3=O)CC2)cc(OC)c1Cl [Cpd 88, (5R)-5-[3-[4-(4-chloro-3-ethoxy-5-methoxy-phenyl)-1-piperidyl]-3-oxo-propyl] imidaz olidine-2,4-dione]
 | 50 to 100 | 0.001 to 25 |  | COc1cc(C2CCN(C(=O)CC[C@H]3NC(=O)NC3=O)CC2)cc(OC)c1F [Cpd 82, (5R)-5-[3-[4-(4-fluoro-3,5-dimethoxy-phenyl)-1-piperidyl]-3-oxo-propyl] imidazolidine-2,4-dione]
> 100 |  | > 100 |  | COc1ccc(C2CCN(C(=O)CC[C@H]3NC(=O)NC3=O)CC2)cc1 [Cpd 30, (R)-5-(3-(4-(4-methoxyphenyl)piperidin-1-yl)-3-oxopropyl) imidazolidine-2,4-dione]
 |  | 0.001 to 25 |  | COc1cc(C2CCN(C(=O)CCC3(C)NC(=O)NC3=O)CC2)c(C)cc1Cl (centres unmarked) [Cpd 37, 5-(3-(4-(4-chloro-5-methoxy-2-methylphenyl)piperidin-1-yl)-3-oxopropyl)-5-methyl-imidazolidine-2,4-dione]
 |  | 0.001 to 25 |  | COc1cc(Cl)c(Cl)cc1C1CCN(C(=O)CCC2(C)NC(=O)NC2=O)CC1 (centres unmarked) [Cpd 62, 5-(3-(4-(4,5-dichloro-2-methoxyphenyl)piperidin-1-yl)-3-oxopropyl)-5-methyl-imidazolidine-2,4-dione]
 |  | 25 to 50 |  | COc1cc(C2CCN(C(=O)CC[C@H]3NC(=O)NC3=O)CC2)cc(N(C)C)c1Cl [Cpd 91]
50 to 100 |  | 50 to 100 | > 100 | C[C@H]1CN(C(=O)CCC2(C3CC3)NC(=O)NC2=O)CC[C@H]1c1ccc(F)c(F)c1 (stereo partly drawn) [Cpd 76, 5-cyclopropyl-5-(3-((3R,4R)-4-(3,4-difluorophenyl)-3-methylpiperidin-1-yl)-3-oxopropyl) imidazolidine-2,4-dione]
> 100 |  | 50 to 100 |  | Cc1cc(Cl)ccc1C1CCN(C(=O)CCC2(C)NC(=O)NC2=O)CC1 (centres unmarked) [Cpd 60, 5-(3-(4-(4-chloro-2-methylphenyl)piperidin-1-yl)-3-oxopropyl)-5-methyl-imidazolidine-2,4-dione]
> 100 |  | > 100 |  | COc1ccc(OC)c(C2CCN(C(=O)CCC3(C)NC(=O)NC3=O)CC2)c1 (centres unmarked) [Cpd 39, 5-(3-(4-(2,5-dimethoxy-phenyl)piperidin-1-yl)-3-oxopropyl)-5-methyl-imidazolidine-2,4-dione]
 |  | 25 to 50 |  | C[C@]1(CCC(=O)N2CCC(c3ccc(Cl)c(C(F)(F)F)c3)CC2)NC(=O)NC1=O [Cpd 94, (5R)-5-[3-[4-[4-chloro-3-(trifluoromethyl)phenyl]-1-piperidyl]-3-oxo-propyl]-5-methyl-imidazolidine-2,4-dione]
> 100 |  | 50 to 100 |  | Cc1cc(Cl)c(F)cc1C1CCN(C(=O)CC[C@H]2NC(=O)NC2=O)CC1 [Cpd 63, (R)-5-(3-(4-(4-chloro-5-fluoro-2-methylphenyl)piperidin-1-yl)-3-oxopropyl) imidazolidine-2,4-dione]
> 100 |  | > 100 |  | COc1ccc(C2CCN(C(=O)CCC3(C)NC(=O)NC3=O)CC2)cc1 (centres unmarked) [Cpd 31, 5-(3-(4-(4-methoxyphenyl)piperidin-1-yl)-3-oxopropyl)-5-methyl-imidazolidine-2,4-dione]
> 100 |  | 50 to 100 |  | CC1(CCC(=O)N2CCC(c3ccc(-c4ccccc4F)s3)CC2)NC(=O)NC1=O (centres unmarked) [Cpd 112, 5-[3-[4-[5-(2-fluorophenyl)-2-thienyl]-1-piperidyl]-3-oxo-propyl]-5-methyl-imidazolidine-2,4-dione]
> 100 |  | > 100 | > 100 | COc1cc(C2CCN(C(=O)CC[C@H]3NC(=O)NC3=O)CC2)ccc1F [Cpd 52, (R)-5-(3-(4-(4-fluoro-3-methoxyphenyl)piperidin-1-yl)-3-oxopropyl) imidazolidine-2,4-dione]
 |  | > 100 |  | Cc1cc(Cl)ccc1C1CCN(C(=O)CC[C@H]2NC(=O)NC2=O)CC1 [Cpd 59, (R)-5-(3-(4-(4-chloro-2-methylphenyl)piperidin-1-yl)-3-oxopropyl) imidazolidine-2,4-dione]
50 to 100 |  | 25 to 50 |  | C[C@H]1CN(C(=O)CC[C@@]2(C)NC(=O)NC2=O)CC[C@H]1c1ccc(F)c(F)c1 [Cpd 99, (5R)-5-[3-[(3R,4R)-4-(3,4-difluorophenyl)-3-methyl-1-piperidyl]-3-oxo-propyl]-5-methyl-imidazolidine-2,4-dione]
 |  | 25 to 50 |  | COc1cc(C2CCN(C(=O)CC[C@@]3(C)NC(=O)NC3=O)CC2)c(C)cc1F [Cpd 83, (5R)-5-[3-[4-(4-fluoro-5-methoxy-2-methyl-phenyl)-1-piperidyl]-3-oxo-propyl]-5-methyl-imidazolidine-2,4-dione]
 | 50 to 100 | 0.001 to 25 |  | COc1cc(C2CCN(C(=O)CC[C@H]3NC(=O)NC3=O)CC2)cc(Cl)c1Cl [Cpd 69, (R)-5-(3-(4-(3,4-dichloro-5-methoxyphenyl)piperidin-1-yl)-3-oxopropyl) imidazolidine-2,4-dione]
> 100 |  | > 100 |  | COc1ccc(OC)c(C2CCN(C(=O)CC[C@H]3NC(=O)NC3=O)CC2)c1 [Cpd 35, (R)-5-(3-(4-(2,5-dimethoxy-phenyl)piperidin-1-yl)-3-oxopropyl) imidazolidine-2,4-dione]
> 100 |  | > 100 |  | COc1c(Cl)cccc1C1CCN(C(=O)CC[C@@]2(C)NC(=O)NC2=O)CC1 [Cpd 86, (5R)-5-[3-[4-(3-chloro-2-methoxy-phenyl)-1-piperidyl]-3-oxo-propyl]-5-methyl-imidazolidine-2,4-dione]
> 100 |  | > 100 |  | COc1ccc(Cl)cc1C1CCN(C(=O)CC[C@H]2NC(=O)NC2=O)CC1 [Cpd 40, (R)-5-(3-(4-(5-chloro-2-methoxy-phenyl)piperidin-1-yl)-3-oxopropyl) imidazolidine-2,4-dione]
> 100 |  | > 100 | > 100 | C[C@H]1CN(C(=O)CC[C@@]2(C3CC3)NC(=O)NC2=O)CC[C@@H]1c1ccc(F)c(F)c1 [Cpd 77, (S)-5-cyclopropyl-5-(3-((3R,4S)-4-(3,4-difluorophenyl)-3-methylpiperidin-1-yl)-3-oxopropyl) imidazolidine-2,4-dione]
 | 50 to 100 | 0.001 to 25 |  | COc1cc(C2CCN(C(=O)CC[C@@]3(C)NC(=O)NC3=O)CC2)cc(Cl)c1Cl [Cpd 68, (R)-5-(3-(4-(3,4-dichloro-5-methoxyphenyl)piperidin-1-yl)-3-oxopropyl)-5-methylimidazolidine-2,4-dione]
> 100 |  | > 100 |  | CC1(CCC(=O)N2CCC(c3ccc(F)c(F)c3)CC2)NC(=O)NC1=O (centres unmarked) [Cpd 56, 5-(3-(4-(3,4-difluorophenyl)piperidin-1-yl)-3-oxopropyl)-5-methyl-imidazolidine-2,4-dione]
 |  | 0.001 to 25 |  | Cc1cc(C2CCN(C(=O)CC[C@@]3(C)NC(=O)NC3=O)CC2)ccc1Cl [Cpd 95, (5R)-5-[3-[4-(4-chloro-3-methyl-phenyl)-1-piperidyl]-3-oxo-propyl]-5-methyl-imidazolidine-2,4-dione]
 |  | 0.001 to 25 |  | COc1cc(Cl)c(Cl)cc1C1CCN(C(=O)CCC2(c3cccc(C)n3)NC(=O)NC2=O)CC1 (centres unmarked) [Cpd 92, 5-[3-[4-(4,5-dichloro-2-methoxy-phenyl)-1-piperidyl]-3-oxo-propyl]-5-(6-methyl-2-pyridyl) imidazolidine-2,4-dione]
> 100 |  | > 100 |  | O=C1NC(=O)[C@@H](CCC(=O)N2CCC(c3ccc(F)c(F)c3)CC2)N1 [Cpd 53, (R)-5-(3-(4-(3,4-difluorophenyl)piperidin-1-yl)-3-oxopropyl) imidazolidine-2,4-dione]
25 to 50 |  | 25 to 50 | > 100 | C[C@H]1CN(C(=O)CC[C@@]2(C3CC3)NC(=O)NC2=O)CC[C@H]1c1ccc(F)c(F)c1 [Cpd 78, (S)-5-cyclopropyl-5-(3-((3R,4R)-4-(3,4-difluorophenyl)-3-methylpiperidin-1-yl)-3-oxopropyl) imidazolidine-2,4-dione]
